{"source": "PubChem BioAssay (NCI)", "assay_in_all_cases": "NCI anticancer screen, dose series, 48 h", "key": {"A498 renal": {"test_system": "A498 renal"}, "SR leukemia": {"test_system": "SR leukemia"}, "T-47D breast": {"test_system": "T-47D breast"}, "RXF 393 renal": {"test_system": "RXF 393 renal"}, "COLO 205 colon": {"test_system": "COLO 205 colon"}, "NCI-H226 lung": {"test_system": "NCI-H226 lung"}, "K-562 leukemia": {"test_system": "K-562 leukemia"}, "A549 NSCLC": {"test_system": "A549 NSCLC"}, "MCF7 breast": {"test_system": "MCF7 breast"}, "NCI-H23 lung": {"test_system": "NCI-H23 lung"}, "SNB-75 CNS": {"test_system": "SNB-75 CNS"}, "HOP-62 NSCLC": {"test_system": "HOP-62 NSCLC"}, "NCI/ADR-RES ovarian": {"test_system": "NCI/ADR-RES ovarian"}, "CCRF-CEM leukemia": {"test_system": "CCRF-CEM leukemia"}, "SW-620 colon": {"test_system": "SW-620 colon"}, "HL-60(TB) leukemia": {"test_system": "HL-60(TB) leukemia"}, "MDA-MB-231 breast": {"test_system": "MDA-MB-231 breast"}, "SNB-19 CNS": {"test_system": "SNB-19 CNS"}, "HOP-92 NSCLC": {"test_system": "HOP-92 NSCLC"}, "HS 578T breast": {"test_system": "HS 578T breast"}, "HCT-15 colon": {"test_system": "HCT-15 colon"}, "HCC-2998 colon": {"test_system": "HCC-2998 colon"}, "UO-31 renal": {"test_system": "UO-31 renal"}, "SN12C renal": {"test_system": "SN12C renal"}, "M14 melanoma": {"test_system": "M14 melanoma"}, "IGROV1 ovarian": {"test_system": "IGROV1 ovarian"}, "CAKI-1 renal": {"test_system": "CAKI-1 renal"}, "LOX IMVI melanoma": {"test_system": "LOX IMVI melanoma"}, "UACC-62 melanoma": {"test_system": "UACC-62 melanoma"}}, "note": "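Results reflect a 48-hour exposure of cells in 96-well plates to compound at five concentrations. GI50 = concentration required for 50% inhibition of growth. At the TGI there is no net growth.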"}
{"molecule": "c1ccc(-n2nnnc2-c2cccc3ccccc23)cc1", "values": [{"measurement": "GI50", "setting": "A498 renal", "value": 0.704, "unit": "µM"}, {"measurement": "TGI", "setting": "A498 renal", "value": "> 55.3", "unit": "µM"}, {"measurement": "GI50", "setting": "SR leukemia", "value": 0.438, "unit": "µM"}, {"measurement": "TGI", "setting": "SR leukemia", "value": 74.4, "unit": "µM"}, {"measurement": "GI50", "setting": "T-47D breast", "value": 0.461, "unit": "µM"}, {"measurement": "TGI", "setting": "T-47D breast", "value": "> 100", "unit": "µM"}, {"measurement": "GI50", "setting": "RXF 393 renal", "value": 1.01, "unit": "µM"}, {"measurement": "TGI", "setting": "RXF 393 renal", "value": "> 20.1", "unit": "µM"}, {"measurement": "GI50", "setting": "COLO 205 colon", "value": 0.49, "unit": "µM"}, {"measurement": "TGI", "setting": "COLO 205 colon", "value": 3.83, "unit": "µM"}, {"measurement": "GI50", "setting": "NCI-H226 lung", "value": 15.5, "unit": "µM"}, {"measurement": "TGI", "setting": "NCI-H226 lung", "value": "> 100", "unit": "µM"}, {"measurement": "GI50", "setting": "K-562 leukemia", "value": 0.377, "unit": "µM"}, {"measurement": "TGI", "setting": "K-562 leukemia", "value": "> 100", "unit": "µM"}, {"measurement": "GI50", "setting": "A549 NSCLC", "value": 1.04, "unit": "µM"}, {"measurement": "TGI", "setting": "A549 NSCLC", "value": "> 100", "unit": "µM"}, {"measurement": "GI50", "setting": "MCF7 breast", "value": 0.562, "unit": "µM"}, {"measurement": "TGI", "setting": "MCF7 breast", "value": "> 100", "unit": "µM"}, {"measurement": "GI50", "setting": "NCI-H23 lung", "value": 1.28, "unit": "µM"}, {"measurement": "TGI", "setting": "NCI-H23 lung", "value": "> 100", "unit": "µM"}, {"measurement": "GI50", "setting": "SNB-75 CNS", "value": 1.55, "unit": "µM"}, {"measurement": "TGI", "setting": "SNB-75 CNS", "value": "> 27.7", "unit": "µM"}, {"measurement": "GI50", "setting": "HOP-62 NSCLC", "value": 0.765, "unit": "µM"}, {"measurement": "TGI", "setting": "HOP-62 NSCLC", "value": "> 100", "unit": "µM"}, {"measurement": "GI50", "setting": "NCI/ADR-RES ovarian", "value": 0.279, "unit": "µM"}, {"measurement": "TGI", "setting": "NCI/ADR-RES ovarian", "value": 1.61, "unit": "µM"}, {"measurement": "GI50", "setting": "CCRF-CEM leukemia", "value": 0.447, "unit": "µM"}, {"measurement": "TGI", "setting": "CCRF-CEM leukemia", "value": "> 100", "unit": "µM"}, {"measurement": "GI50", "setting": "SW-620 colon", "value": 0.453, "unit": "µM"}, {"measurement": "TGI", "setting": "SW-620 colon", "value": "> 100", "unit": "µM"}, {"measurement": "GI50", "setting": "HL-60(TB) leukemia", "value": 0.365, "unit": "µM"}, {"measurement": "TGI", "setting": "HL-60(TB) leukemia", "value": 1.7, "unit": "µM"}, {"measurement": "GI50", "setting": "MDA-MB-231 breast", "value": 1.34, "unit": "µM"}, {"measurement": "TGI", "setting": "MDA-MB-231 breast", "value": 28.8, "unit": "µM"}, {"measurement": "GI50", "setting": "SNB-19 CNS", "value": 0.859, "unit": "µM"}, {"measurement": "TGI", "setting": "SNB-19 CNS", "value": "> 100", "unit": "µM"}, {"measurement": "GI50", "setting": "HOP-92 NSCLC", "value": 1.19, "unit": "µM"}, {"measurement": "TGI", "setting": "HOP-92 NSCLC", "value": 24.3, "unit": "µM"}, {"measurement": "GI50", "setting": "HS 578T breast", "value": 1.36, "unit": "µM"}, {"measurement": "TGI", "setting": "HS 578T breast", "value": "> 100", "unit": "µM"}, {"measurement": "GI50", "setting": "HCT-15 colon", "value": 0.348, "unit": "µM"}, {"measurement": "TGI", "setting": "HCT-15 colon", "value": "> 100", "unit": "µM"}, {"measurement": "GI50", "setting": "HCC-2998 colon", "value": 1.12, "unit": "µM"}, {"measurement": "TGI", "setting": "HCC-2998 colon", "value": 10.3, "unit": "µM"}, {"measurement": "GI50", "setting": "UO-31 renal", "value": 2.16, "unit": "µM"}, {"measurement": "TGI", "setting": "UO-31 renal", "value": 61.1, "unit": "µM"}, {"measurement": "GI50", "setting": "SN12C renal", "value": 1.33, "unit": "µM"}, {"measurement": "TGI", "setting": "SN12C renal", "value": "> 100", "unit": "µM"}, {"measurement": "GI50", "setting": "M14 melanoma", "value": 0.365, "unit": "µM"}, {"measurement": "TGI", "setting": "M14 melanoma", "value": 8.81, "unit": "µM"}, {"measurement": "GI50", "setting": "IGROV1 ovarian", "value": 1.56, "unit": "µM"}, {"measurement": "TGI", "setting": "IGROV1 ovarian", "value": "> 100", "unit": "µM"}, {"measurement": "GI50", "setting": "CAKI-1 renal", "value": 0.465, "unit": "µM"}, {"measurement": "TGI", "setting": "CAKI-1 renal", "value": "> 100", "unit": "µM"}, {"measurement": "GI50", "setting": "LOX IMVI melanoma", "value": 0.498, "unit": "µM"}, {"measurement": "TGI", "setting": "LOX IMVI melanoma", "value": 24.8, "unit": "µM"}, {"measurement": "GI50", "setting": "UACC-62 melanoma", "value": 0.666, "unit": "µM"}]}
